Experimental data as given in US11066455B2, “Tmem100 peptides and variants thereof and their use in treating or preventing diseases or conditions” (The Johns Hopkins University, priority 2014, dated 2021).
* marks the point of attachment. Palmitoyl = CCCCCCCCCCCCCCCC(=O)*

B2: TRPV1 (endogenous, mouse DRG) (receptor, UniProt Q704Y3 1-839, looked up)
chain: MEKWASLDSDESEPPAQENSCPDPPDRDPNSKPPPAKPHIFATRSRTRLFGKGDSEEASPMDCPYEEGGLASCPIITVSSVVTLQRSVDGPTCLRQTSQDSVSTGVETPPRLYDRRSIFDAVAQSNCQELESLLSFLQKSKKRLTDSEFKDPETGKTCLLKAMLNLHNGQNDTIALLLDIARKTDSLKQFVNASYTDSYYKGQTALHIAIERRNMALVTLLVENGADVQAAANGDFFKKTKGRPGFYFGELPLSLAACTNQLAIVKFLLQNSWQPADISARDSVGNTVLHALVEVADNTADNTKFVTNMYNEILILGAKLHPTLKLEELTNKKGLTPLALAASSGKIGVLAYILQREIHEPECRHLSRKFTEWAYGPVHSSLYDLSCIDTCEKNSVLEVIAYSSSETPNRHDMLLVEPLNRLLQDKWDRFVKRIFYFNFFVYCLYMIIFTTAAYYRPVEGLPPYKLNNTVGDYFRVTGEILSVSGGVYFFFRGIQYFLQRRPSLKSLFVDSYSEILFFVQSLFMLVSVVLYFSHRKEYVASMVFSLAMGWTNMLYYTRGFQQMGIYAVMIEKMILRDLCRFMFVYLVFLFGFSTAVVTLIEDGKNNSLPVESPPHKCRGSACRPGNSYNSLYSTCLELFKFTIGMGDLEFTENYDFKAVFIILLLAYVILTYILLLNMLIALMGETVNKIAQESKNIWKLQRAITILDTEKSFLKCMRKAFRSGKLLQVGFTPDGKDDFRWCFRVDEVNWTTWNTNVGIINEDPGNCEGVKRTLSFSLRSGRVSGRNWKNFALVPLLRDASTRDRHSTQPEEVQLKHYTGSLKPEDAEVFKDSMAPGEK
notes: whole, on cells

What was measured:
[1] = tested on: ongoing neuropathic pain in SNL rats; experiment: Conditioned place preference test for ongoing pain in SNL rats; format: in vivo, rat; details: intrathecal 50 μM, 10 μl; for conditioned place preference: time in drug-paired chamber, SNL rats: scramble peptide-paired chamber as comparison
Source text: Ongoing, or spontaneous, pain, which is most bothersome to patients, is difficult to treat and difficult to study in animals. The conditioned place preference test has been successfully developed to reveal the presence of non-evoked, ongoing pain and pain relief based on the preference of an animal for the context paired with a pain-relief treatment. The conditioned place preference can also capture the aversive aspects of pain. Strikingly, many studies have shown that the rodent conditioned place preference test accurately reflects the effectiveness of human clinical treatments. Therefore, this test is a powerful approach to investigate the potential effectiveness of new treatments and mechanisms for relief of ongoing pain. Two previous studies have examined the role of TRPA1 in ongoing pain by the conditioned place preference test. […] Because the antagonists used in those studies (HC030031 and Chem5861528) target TRPA1 monomers, it is possible that T100-Mut can inhibit ongoing pain by modulating the TRPA1/V1 complex. This possibility was tested in rodents with SNL-induced ongoing pain using the conditioned place preference test. […] Systemic administration of gabapentin, an analgesic that is known to alleviate neuropathic pain, was used as a positive control (FIG. 16B).

[2] = tested on: neuropathic mechanical hypersensitivity in SNL rats; format: in vivo, rat; details: intrathecal 10 μl
Source text: An modified L5 SNL model was produced as described in previously (He et al., 2014; Shechter et al., 2013). Male Sprague-Dawley rats (200-350 g, Harlan, Indianapolis, Ind.) were anesthetized with 2% isoflurane. The left L5 spinal nerve was ligated with a 6-0 silk suture and cut distally. The muscle layer was closed with 4-0 chromic gut suture and the skin closed with metal clips. For intrathecal catheter implantation, a small slit was cut in the atlanto-occipital membrane of rats, into which a saline-filled piece of PE-10 tubing (6-7 cm) was inserted (He et al., 2014). […] Hypersensitivity to punctuate mechanical stimulation was determined with the up-down method by using a series of von Frey filaments (0.38-15.1 g) applied for 4-6 seconds to the test area on the plantar surface of the hindpaw (Chaplan et al., 1994; He et al., 2014). The PWT was determined according to the formula provided by Dixon (Dixon, 1980). […] HC-030031 was purchased from Tocris Bioscience (Bristol, UK). Both drugs were dissolved in 10% dimethylsulfoxide (DMSO), 5% Tween 80 and 85% sterile saline solution. The final working solution which was injected by intrathecal route contained <1% DMSO. The number of animals used in each study was based on experience with similar studies and power analysis calculations. Animals were randomized to the different treatment groups and blinded the experimenter to drug treatment to reduce selection and observation bias. After the experiments were completed, no data point was excluded. STATISTICA 6.0 software (StatSoft, Inc., Tulsa, Okla.) was used to conduct all statistical analyses. The Tukey honestly significant difference (HSD) post-hoc test was used to compare specific data points. Bonferroni correction was applied for multiple comparisons. Two-tailed tests were performed, and data are expressed as mean±SEM; P<0.05 was considered significant in all tests.
The sequence from the last 28 amino acids of the C-terminus of the Tmem100-3Q mutant protein was synthesized and myristoylated at its N-terminus (myr-[…]-COOH) (SEQ ID NO: 8) by Twentyfirst Century Biochemicals. […] For the calcium imaging assay, the peptides were added to the calcium imaging buffer with a final concentration of 200 nM and incubated for at least […] at room temperature. For the mice behavioral assays, the peptides (5 μL, 2 mM) were injected subcutaneously in the hindpaw at least 30 minutes before testing. For the rat behavior assays, human T100-3Q (h-T100), a palmitoylated cell permeable peptide mutated based on the C terminus of human sequence in Tmem100, was applied. The sequence is Palmitoyl-[…]-COOH (SEQ ID NO: 7).

[3] = tested on: SNL-induced mechanical hyperalgesia in wild-type mice; experiment: Spinal nerve ligation (SNL) in wild-type mice, mechanical hyperalgesia; format: in vivo, mouse; details: day 6 post ligation, 4 hrs post CPP; 5 μl of 2 mM intradermal in hindpaws
Method: In the wild-type mice with spinal nerve ligation (SNL), mechanical hyperalgesia is observed 6 days post ligation. Palmitoylated (Pal) CPP tailored to the C-terminus of human Tmem100-3Q alleviates neuropathic pain/mechanical allodynia in SNL. n=6, *p<0.05 at Day 6 4 hrs post CPP treatment. Scrambled: open bar; human P2-Mut (T100-Mut): black bar (FIG. 17). Peptides (5 μl of 2 mM) were injected intradermally in the hindpaws. Sequences for CPP used in the SNL experiment:
Human P2-Mut (T100-Mut) Pal-[…]-OH (SEQ ID NO: 7); Scrambled Pal-[…]-OH (SEQ ID NO: 19). Pal-palmitoylated in the N termini for each CPP.

TRPV1-CFP [4] = experiment: FRET with TIRF microscopy, COS-7 cells, wild-type Tmem100 co-expressed
TRPV1-CFP [5] = experiment: FRET with TIRF microscopy, COS-7 cells, Tmem100-3Q co-expressed
[6] = target: B2; experiment: co-immunoprecipitation from mouse DRG lysates
Source text: (§1) All groups were transfected with TRPV1-CFP and TRPA1-YFP except for the Rho-pYC (as a positive control for maximal effects of the system) and M-V1 (negative control) groups, where Rho-pYC and membrane-tethered YFP+TRPV1-CFP, respectively, were transfected instead. FRET efficiencies were highest in Tmem100-3Q-transfected cells (A1-V1-3Q), followed by the empty vector-transfected groups (A1-V1), and were lowest in cells transfected with wild-type Tmem100 (A1-V1-WT). The statistic is one-way ANOVA (*$p<0.05$; $p<0.01$, *$p<0.001$). Data are presented as mean±SEM. FIG. 5F is a table showing a summary of the data from FIG. 5E.
(§2) DRG from all levels or CHO cells transfected with Trpv1, Trpa1, and Tmem100-myc were used. Whole cell DRG or CHO cells lysates were generated 24 h after transfection, and Co-IP with either 1 µg myc antibody (EMD Millipore) or 1 µg TRPV1 antibody (Santa Cruz, R130) as described (Akopian et al., 2007) Immunoprecipitants and cell lysate aliquots were resolved by SDS-PAGE and immunoblotted with 1:1000 anti-TRPV1 antibody (Santa Cruz, R130), 1:500 anti-Tmem100 antibody, 1:1000 anti-TRPA1 (Novus), or 1:1000 anti-myc (EMD Millipore). Secondary antibodies for visualization included donkey anti-rabbit and anti-mouse HRP-conjugated antibodies (GE Biosciences). […]

[7] = target: T1, TRPA1 (endogenous, mouse DRG) (mouse, UniProt Q8BLA8 1-1125); experiment: co-immunoprecipitation from mouse DRG lysates
T1 construct: whole, on cells
T1 sequence (Q8BLA8 whole entry): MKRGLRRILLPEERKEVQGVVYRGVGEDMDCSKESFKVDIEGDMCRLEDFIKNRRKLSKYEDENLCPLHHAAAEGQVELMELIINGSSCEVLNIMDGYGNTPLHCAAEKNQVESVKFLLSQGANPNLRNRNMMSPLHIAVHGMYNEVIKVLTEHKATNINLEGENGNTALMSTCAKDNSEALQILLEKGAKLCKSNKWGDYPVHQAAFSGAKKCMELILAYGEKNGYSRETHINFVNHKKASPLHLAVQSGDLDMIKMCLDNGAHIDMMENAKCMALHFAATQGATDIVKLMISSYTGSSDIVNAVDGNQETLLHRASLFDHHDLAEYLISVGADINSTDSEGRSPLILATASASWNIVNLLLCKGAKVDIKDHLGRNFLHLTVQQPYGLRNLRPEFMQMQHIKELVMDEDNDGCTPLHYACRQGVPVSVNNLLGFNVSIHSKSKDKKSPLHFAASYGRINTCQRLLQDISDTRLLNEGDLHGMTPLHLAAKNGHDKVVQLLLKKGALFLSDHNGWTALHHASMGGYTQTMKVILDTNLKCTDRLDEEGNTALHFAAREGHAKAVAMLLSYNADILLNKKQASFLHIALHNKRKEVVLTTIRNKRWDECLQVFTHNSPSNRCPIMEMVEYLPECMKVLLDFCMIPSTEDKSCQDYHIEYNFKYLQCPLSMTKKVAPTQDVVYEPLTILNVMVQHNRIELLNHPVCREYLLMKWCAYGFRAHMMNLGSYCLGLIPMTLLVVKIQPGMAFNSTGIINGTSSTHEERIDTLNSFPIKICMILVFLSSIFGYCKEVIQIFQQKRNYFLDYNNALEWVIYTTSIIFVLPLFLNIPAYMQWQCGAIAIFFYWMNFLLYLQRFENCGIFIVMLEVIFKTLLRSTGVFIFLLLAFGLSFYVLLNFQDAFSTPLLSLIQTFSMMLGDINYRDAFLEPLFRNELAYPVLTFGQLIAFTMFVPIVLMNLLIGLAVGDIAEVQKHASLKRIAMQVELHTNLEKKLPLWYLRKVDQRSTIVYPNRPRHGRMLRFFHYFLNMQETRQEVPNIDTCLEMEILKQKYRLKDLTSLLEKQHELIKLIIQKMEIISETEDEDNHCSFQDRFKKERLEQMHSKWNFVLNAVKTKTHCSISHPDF
Source text: as §1, §2

[8] = target: T1, TRPA1 (endogenous, mouse DRG); experiment: co-IP with Tmem100 and TRPV1 antibodies, Western blot, mouse DRG lysates
Source text: as §1, §2

In the case of “Palmitoyl-WKVRQRSKKAQQQESQTALVANQRSLFA-COOH (Palmitoyl-WKVRQRSKKAQQQESQTALVANQRSLFA-OH; SMILES CCCCCCCCCCCCCCCC(=O)N[C@@H](Cc1c[nH]c2ccccc12)C(=O)N[C@@H](CCCCN)C(=O)N[C@H](C(=O)N[C@@H](CCCNC(=N)N)C(=O)N[C@@H](CCC(N)=O)C(=O)N[C@@H](CCCNC(=N)N)C(=O)N[C@@H](CO)C(=O)N[C@@H](CCCCN)C(=O)N[C@@H](CCCCN)C(=O)N[C@@H](C)C(=O)N[C@@H](CCC(N)=O)C(=O)N[C@@H](CCC(N)=O)C(=O)N[C@@H](CCC(N)=O)C(=O)N[C@@H](CCC(=O)O)C(=O)N[C@@H](CO)C(=O)N[C@@H](CCC(N)=O)C(=O)N[C@H](C(=O)N[C@@H](C)C(=O)N[C@@H](CC(C)C)C(=O)N[C@H](C(=O)N[C@@H](C)C(=O)N[C@@H](CC(N)=O)C(=O)N[C@@H](CCC(N)=O)C(=O)N[C@@H](CCCNC(=N)N)C(=O)N[C@@H](CO)C(=O)N[C@@H](CC(C)C)C(=O)N[C@@H](Cc1ccccc1)C(=O)N[C@@H](C)C(=O)O)C(C)C)[C@@H](C)O)C(C)C; listed as Homo sapiens) [h-T100]”, the “conditioned place preference: time in drug-paired chamber, SNL rats” value ([1]; listed as P2-Mut) is reported as “increased”, the “conditioned place preference: time in drug-paired chamber, SNL rats” value ([1]; listed as human T100-Mut) is reported as “induced robust the conditioned place preference” and the “chamber preference in sham-operated rats” value ([1]; sham-operated) is reported as “did not induce chamber preference”. For the same molecule, the “contralateral PWT after drug injection” value [2] was “no significant change”, the “ipsilateral paw withdrawal threshold (PWT) vs pre-drug” value ([2]; h-T100 10-100 μM, HC-030031 10-200 μM, scrambled 100 μM) was “dose-dependently increased” and the “SNL-induced mechanical hyperalgesia / allodynia in mice” value [3] was “alleviates”.

Work on TRPA1-YFP (receptor) yielded a decrease of FRET efficiency against cells expressing only TRPA1-V1 (TRPV1-CFP [4]) of 34% and an increase of the TRPA1-TRPV1 interaction (FRET efficiency) against cells expressing only TRPA1-V1 (TRPV1-CFP [5]) of 43%.

B1: Tmem100 (wild-type, full-length, mouse) (other)
chain: MTEESTKENLGAPKSPTPVTMEKNPKREVVVTTGPLVSEVQLMAATGGAELSCYRCIIPFAVVVFITGIVVTAVAYSFNSHGSIISIFGLVLLSSGLFLLASSALCWKVRQRNKKVKRRESQTALVVNQRCLFA
notes: also called Pirt2; T100
B1: binds [6]; binds [7].

B2: binds [8].
